Laboratory results taken from US20220226479A1, “CELL LAYER PERMEATION PROMOTER. COMPOSITION FOR FACILITATING DRUG ABSORPTION. AND PHARMACEUTICAL COMPOSITION” (University of Tsukuba, priority 2019, published 2022).
Entries after “also recorded” stand apart in the source; their conditions may differ. Where a SMILES comes first, the peptide text is derived from it. Bridges are numbered along the chain shown (N, C = ends). [ ]: non-standard residue; d: D form. The star is where a group is joined. ξ: configuration not given here. Decanoyl(3ξ-OH) = CCCCCCCC(O)CC(=O)*; Decanoyl = CCCCCCCCCC(=O)*

System: MDCK II cells
Assay: Permeation evaluation test with FD4 marker (dextran, molecular weight 4000) across a model epithelial cell layer in a transwell
Format: cell-based, dog
Conditions: for cell-layer-permeation-promoting effect (permeation of FD4, result in words): 0.003 mM in 1 v/v % DMSO, FIG. 1-4; for increase/accumulation in the amount permeating the receiver solution, late period / reversibility of the permeation-accelerating effect: 0.003 mM; for increase/accumulation in the amount permeating the receiver solution, late period: period from two hours to five hours after the start of testing, test example 1; for reversibility of the permeation-accelerating effect: recovery of tight junctions and other cell bonding structures; for increase in the amount of FD4 permeating the receiver solution with respect to the negative control (factor): test substance 0.003 mM in 1 v/v % DMSO, two hours after the start of testing, test example 1, FIG. 1; for cell-layer-permeation-promoting effect compared with cu538-2: both at 0.003 mM, test examples 2-4, FIG. 2-4
Protocol: MDCK II cells derived from dog kidney epithelial cells were used to create a model of an epithelial cell layer in which a transwell was used, and a test to evaluate permeation by substances was conducted. Specifically, MDCK II cells in a logarithmic growth phase were sowed in a transwell (diameter: 6.5 mm, collagen coat, pore size: 0.4 μm) (trade name “Corning Transwell 3495,” made by Corning Co., Ltd.) at a cell count of 3.4 to 4.0×10^4 cells, a 24-hole well plate was used as basal-side wells, and 600 μL of a cell growth medium was introduced into each of apical-side wells and the basal-side wells. The medium was replaced daily to form a layer, and three days after sowing the medium was replaced with a Hank's balanced salt solution (HESS) for measurement. After incubation for one hour at 37° C., layer formation was confirmed by measuring the transepithelial electrical resistance (TEER) using a resistance value measurement system (trade name “Millicell-ERS,” made by Millipore Corp.). After layer formation was confirmed, the apical-side medium was replaced by 100 μL of HESS to which a marker substance (FD4: […]) (made by Sigma KK) having a molecular weight of 4000 was added so as to reach a concentration of 1.0 w/v %, and test substances were added so as to reach the final concentrations indicated below. The transwell was shifted, at intervals of 30 minutes until five hours after addition of the marker substance, to the basal-side wells into which the new HESS entered, and the HESS in the remaining basal-side wells (referred to as a “receiver solution” below) was retrieved 50 μL at a time per well in a 96-hole well plate. The fluorescence intensity of the retrieved HESS at an excitation wavelength of 485 nm and a fluorescence wavelength of 528 nm was measured using a fluorescent plate reader (trade name “Wallac 1420 ARVO MX,” made by Perkin Elmer Corp.).
A test to evaluate permeation by substances was conducted in the same manner as in test example 1, except that the test substances were as indicated below.

SMILES | cell-layer-permeation-promoting effect (permeation of FD4, result in words) | increase/accumulation in the amount permeating the receiver solution, late period | reversibility of the permeation-accelerating effect | increase in the amount of FD4 permeating the receiver solution with respect to the negative control (factor) | amount of marker substance permeating the receiver solution over time (positive control) (0.0001 mM in 1 v/v % DMSO, over five hours after the start of testing) | cell-layer-permeation-promoting effect compared with cu538-2
CCCCCCC[C@H](O)CC(=O)N[C@@H](CC(C)C)C(=O)N[C@H](CCC(=O)O)C(=O)N[C@H](CCC(N)=O)C(=O)N[C@@H](C(=O)N[C@H](CC(C)C)C(=O)N[C@@H](CCC(N)=O)C(=O)N[C@@H]1COC(=O)[C@H]([C@@H](C)CC)NC(=O)[C@@H](CCC(N)=O)NC(=O)[C@H](CC(C)C)NC(=O)[C@H](CC(C)C)NC(=O)[C@@H](CCC(N)=O)NC(=O)[C@@H](CC(C)C)NC(=O)[C@@H](C(C)C)NC1=O)C(C)C (single isomer, unassigned) [cu538-1] | accelerated permeation of substances in the paracellular pathway | substantially no increase/accumulation | reversible | four | – | –
C/C1=C/C(=O)O[C@@H]2C[C@@H](CC[C@H](C)/C=C\C=C\CC1)O[C@@](O)([C@@H]1CSC(=O)N1)C2 [Latrunclin A, reference compound] | – | – | – | – | continuous increase/accumulation | –
CCCCCCCCCC(=O)N[C@@H](CC(C)C)C(=O)N[C@H](CCC(=O)O)C(=O)N[C@H](CCC(N)=O)C(=O)N[C@@H](C(=O)N[C@H](CC(C)C)C(=O)N[C@@H](CCC(N)=O)C(=O)N[C@@H]1COC(=O)[C@H]([C@@H](C)CC)NC(=O)[C@@H](CCC(N)=O)NC(=O)[C@H](CC(C)C)NC(=O)[C@H](CC(C)C)NC(=O)[C@@H](CCC(N)=O)NC(=O)[C@@H](CC(C)C)NC(=O)[C@@H](C(C)C)NC1=O)C(C)C [NY-38] (Decanoyl-L[dE][dQ][dV][dL]Q[dS][dV][dL][dQ]LL[dQ]I; ester 7-C) | accelerated permeation of substances in the paracellular pathway; also recorded: cell-layer-permeation-promoting effect was found | – | reversible | – | – | more remarkable
CCCCCCC[C@@H](O)CC(=O)N[C@@H](CC(C)C)C(=O)N[C@H](CCC(=O)O)C(=O)N[C@H](CCC(N)=O)C(=O)N[C@@H](C(=O)N[C@H](CC(C)C)C(=O)N[C@@H](CCC(N)=O)C(=O)N[C@@H]1COC(=O)[C@H]([C@@H](C)CC)NC(=O)[C@@H](CCC(N)=O)NC(=O)[C@H](CC(C)C)NC(=O)[C@H](CC(C)C)NC(=O)[C@@H](CCC(N)=O)NC(=O)[C@@H](CC(C)C)NC(=O)[C@@H](C(C)C)NC1=O)C(C)C [cu538-2] | accelerated permeation of substances in the paracellular pathway | substantially no increase/accumulation | reversible | eight | – | –
CCCCCCCC(O)CC(=O)N[C@@H](CC(C)C)C(=O)N[C@H](CCC(=O)O)C(=O)N[C@H](CCC(N)=O)C(=O)N[C@@H](C(=O)N[C@H](CC(C)C)C(=O)N[C@@H](C)C(=O)N[C@@H]1COC(=O)[C@H]([C@@H](C)CC)NC(=O)[C@@H](CCC(N)=O)NC(=O)[C@H](CC(C)C)NC(=O)[C@H](CC(C)C)NC(=O)[C@@H](CCC(N)=O)NC(=O)[C@@H](CC(C)C)NC(=O)[C@@H](C(C)C)NC1=O)C(C)C (stereo partly drawn) [cu592] ({Decanoyl(3ξ-OH)}-L[dE][dQ][dV][dL]A[dS][dV][dL][dQ]LL[dQ]I; ester 7-C) | – | – | – | – | – | equivalent
CCCCCCCC(O)CC(=O)N[C@@H](CC(C)C)C(=O)N[C@H](CCC(=O)O)C(=O)N[C@H](CCC(N)=O)C(=O)N[C@@H](C(=O)N[C@H](CC(C)C)C(=O)N[C@@H](CCC(N)=O)C(=O)N[C@@H]1COC(=O)[C@H]([C@@H](C)CC)NC(=O)[C@@H](CCC(N)=O)NC(=O)[C@H](CC(C)C)NC(=O)[C@H](CC(C)C)NC(=O)[C@@H](C)NC(=O)[C@@H](CC(C)C)NC(=O)[C@@H](C(C)C)NC1=O)C(C)C (stereo partly drawn) [cu605] ({Decanoyl(3ξ-OH)}-L[dE][dQ][dV][dL]Q[dS][dV][dL][dA]LL[dQ]I; ester 7-C) | found to have an effect | – | – | – | – | –
CCCCCCCC(O)CC(=O)N[C@@H](CC(C)C)C(=O)N[C@H](CCC(=O)O)C(=O)N[C@H](CCC(N)=O)C(=O)N[C@@H](C(=O)N[C@H](CC(C)C)C(=O)N[C@@H](CCC(N)=O)C(=O)N[C@@H]1COC(=O)[C@H]([C@@H](C)CC)NC(=O)[C@@H](C)NC(=O)[C@H](CC(C)C)NC(=O)[C@H](CC(C)C)NC(=O)[C@@H](CCC(N)=O)NC(=O)[C@@H](CC(C)C)NC(=O)[C@@H](C(C)C)NC1=O)C(C)C (stereo partly drawn) [cu619] ({Decanoyl(3ξ-OH)}-L[dE][dQ][dV][dL]Q[dS][dV][dL][dQ]LL[dA]I; ester 7-C) | found to have an effect | – | – | – | – | more remarkable
